Here are results for 22 molecules from patent US8846601B2, “Melanocortin receptor-specific peptides” (Palatin Technologies, Inc., priority 2009, dated 2014).

Bridge positions count the residues as written; N and C are the ends. Square brackets hold non-standard residues; d marks the D form. Peptide text beside a SMILES is read from it. * marks the point of attachment. Bn = c1ccc(C*)cc1

Sequence of hMC4-R (P32245 whole entry): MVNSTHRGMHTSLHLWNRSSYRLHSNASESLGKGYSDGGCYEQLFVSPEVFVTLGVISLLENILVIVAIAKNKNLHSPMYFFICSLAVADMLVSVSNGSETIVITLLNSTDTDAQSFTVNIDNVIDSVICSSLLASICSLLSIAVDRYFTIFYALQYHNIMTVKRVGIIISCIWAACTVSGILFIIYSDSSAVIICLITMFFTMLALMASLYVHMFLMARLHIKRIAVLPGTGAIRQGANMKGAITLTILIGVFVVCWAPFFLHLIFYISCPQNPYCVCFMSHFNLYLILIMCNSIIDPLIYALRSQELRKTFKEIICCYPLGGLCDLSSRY

In the test the target is hMC4-R (Homo sapiens (Human), UniProt P32245). The experiment in a line: Competitive inhibition binding assay using [I125]-NDP-α-MSH, hMC4-R membranes. Particulars: averaged; [I125]-NDP-α-MSH (values not marked *); read-out: MC4-R Ki. How it is done:
A competitive inhibition binding assay is performed using membrane homogenates prepared from HEK-293 cells that express recombinant hMC4-R, hMC3-R, or hMC5-R, and from B-16 mouse melanoma cells (containing endogenous MC1-R). In some instances, HEK-293 cells that express recombinant hMC1-R were employed. In the examples that follow, all MC3-R, MC4-R and MC5-R values are for human recombinant receptors. […] Membrane homogenates were incubated with 0.2 nM (for hMC4-R) 0.4 nM (for MC3-R and MC5-R) or 0.1 nM (for mouse B16 MC1-R or hMC1-R) [I^125]-NDP-α-MSH (Perkin Elmer) and increasing concentrations of test peptides of the present invention in buffer containing 25 mM HEPES buffer (pH 7.5) with 100 mM NaCl, 2 mM CaCl2, 2 mM MgCl2, 0.3 mM 1,10-phenanthroline, and 0.2% bovine serum albumin. After incubation for 60 minutes at 37° C., the assay mixture was filtered and the membranes washed three times with ice-cold buffer. Filters were dried and counted in a gamma counter for bound radioactivity. […] Maximal specific binding (100%) was defined as the difference in radioactivity (cpm) bound to cell membranes in the absence and presence of 1 μM NDP-α-MSH. […] Each assay was conducted in triplicate and the actual mean values are described, with results less than 0% reported as 0%. Ki values for test peptides of the present invention were determined using Graph-Pad Prism® curve-fitting software.
For orientation: Ki means a dissociation constant, usually derived from enzyme kinetics or from competition with a known ligand. As for `CC(=O)N[C@@H](CCC(N)=O)C(=O)N[C@H]1CC(=O)NCCCC[C@@H](C(N)=O)NC(=O)[C@H](Cc2c[nH]c3ccccc23)NC(=O)[C@H](CCCNC(=N)N)NC(=O)[C@@H](Cc2ccccc2)NC(=O)[C@H](CCN)NC1=O` [compound 142, Ac-Gln-cyclo(Asp-Dab- D-Phe-Arg-Trp-Lys)- NH2] (HELM PEPTIDE1{[ac].Q.D.[Dab].[dF].R.W.K.[am]}$PEPTIDE1,PEPTIDE1,3:R3-8:R3$$$V2.0), the Ki is 15 nM.
Regarding `CC(=O)N[C@@H](CCCN)C(=O)N[C@H]1CCCNC(=O)CC[C@@H](C(N)=O)NC(=O)[C@H](Cc2c[nH]c3ccccc23)NC(=O)[C@H](CCCNC(=N)N)NC(=O)[C@@H](Cc2ccccc2)NC(=O)[C@H](CC(N)=O)NC1=O` [compound 158, Ac-Orn-cyclo(Orn-Asn- D-Phe-Arg-Trp-Glu)- NH2] (HELM PEPTIDE1{[ac].[Orn].[Orn].N.[dF].R.W.E.[am]}$PEPTIDE1,PEPTIDE1,3:R3-8:R3$$$V2.0), the Ki stood at 50 nM.
Turning to `CC(=O)N[C@@H](CCCNC(=N)N)C(=O)N[C@H]1CCCC(=O)NCC[C@@H](C(N)=O)NC(=O)[C@H](Cc2c[nH]c3ccccc23)NC(=O)[C@H](CCCNC(=N)N)NC(=O)[C@@H](Cc2ccccc2)NC(=O)[C@H](CCC(N)=O)NC1=O` [compound 147, Ac-Arg-cyclo(hGlu-Gln- D-Phe-Arg-Trp-Dab)- NH2], the Ki came out at 20 nM.
Take `CC(=O)N[C@@H](CCCNC(=N)N)C(=O)N[C@H]1CCC(=O)NCCC[C@@H](C(=O)O)NC(=O)[C@H](Cc2c[nH]c3ccccc23)NC(=O)[C@H](CCCNC(=N)N)NC(=O)[C@@H](Cc2ccccc2)NC(=O)[C@H](CCCN)NC1=O` [compound 90, Ac-Arg-cyclo(Glu-Orn- D-Phe-Arg-Trp-Orn)- OH]: the Ki was 9 nM.
The value for `CC(=O)N[C@@H](CCCNC(=N)N)C(=O)N[C@H]1CC(=O)NCCCC[C@@H](C(N)=O)NC(=O)[C@H](Cc2c[nH]c3ccccc23)NC(=O)[C@H](CCCNC(=N)N)NC(=O)[C@@H](Cc2ccccc2)NC(=O)[C@H](CCC(N)=O)NC1=O` [compound 57, Ac-Arg-cyclo(Asp-Gln- D-Phe-Arg-Trp-Lys)-OH] was 115 nM.
Then `CC(=O)N[C@@H](CCCNC(=N)N)C(=O)N[C@H]1CC(=O)NCCCC[C@@H](C(N)=O)NC(=O)[C@H](Cc2c[nH]c3ccccc23)NC(=O)[C@H](CCCNC(=N)N)NC(=O)[C@@H](Cc2ccccc2)NC(=O)[C@H](CO)NC1=O` [Peptide No. 3, Ac-Arg-cyclo(Asp-Ser- D-Phe-Arg-Trp-Lys)- NH2], with 172 nM.
The value for `N=C(N)NCCC[C@H](NC(=O)Cc1ccccc1)C(=O)N[C@H]1CC(=O)NCCCC[C@@H](C(N)=O)NC(=O)[C@H](Cc2c[nH]c3ccccc23)NC(=O)[C@H](CCCNC(=N)N)NC(=O)[C@@H](Cc2ccccc2)NC(=O)[C@H](CCN)NC1=O` [compound 140, Phenylacetyl-Arg- cyclo(Asp-Dab-D-Phe- Arg-Trp-Lys)-NH2] was 2 nM.
As to `CC(=O)N[C@@H](CCCNC(=N)N)C(=O)N[C@H]1CCCCNC(=O)C[C@@H](C(N)=O)NC(=O)[C@H](Cc2c[nH]c3ccccc23)NC(=O)[C@H](CCCNC(=N)N)NC(=O)[C@@H](Cc2ccccc2)NC(=O)[C@H](CCN)NC1=O` [compound 121, Ac-Arg-cyclo(Lys-Dab- D-Phe-Arg-Trp-Asp)- NH2] (HELM PEPTIDE1{[ac].R.K.[Dab].[dF].R.W.D.[am]}$PEPTIDE1,PEPTIDE1,3:R3-8:R3$$$V2.0), the Ki was determined as 0.4 nM.
Consider `CC(=O)N[C@@H](CCCNC(=N)N)C(=O)N[C@H]1CCNC(=O)CCC[C@@H](C(=O)O)NC(=O)[C@H](Cc2c[nH]c3ccccc23)NC(=O)[C@H](CCCNC(=N)N)NC(=O)[C@@H](Cc2ccccc2)NC(=O)[C@H](CCN)NC1=O` [compound 136, Ac-Arg-cyclo(Dab-Dab- D-Phe-Arg-Trp-hGlu)- OH], for which the Ki came out at 35 nM.
The value for `CC(=O)N[C@@H](CCCNC(=N)N)C(=O)N[C@H]1CC(=O)NCCCC[C@@H](C(N)=O)NC(=O)[C@H](Cc2c[nH]c3ccccc23)NC(=O)[C@H](CCCNC(=N)N)NC(=O)[C@@H](Cc2ccccc2)NC(=O)CN(C)C1=O` [compound 63, Ac-Arg-cyclo(Asp-Sar- D-Phe-Arg-Trp-Lys)- NH2] was 15 nM; that for `CC(=O)N[C@@H](CCCNC(=N)N)C(=O)N[C@H]1CC(=O)NCCCC[C@@H](C(N)=O)NC(=O)[C@H](Cc2c[nH]c3ccccc23)NC(=O)[C@H](CCCNC(=N)N)NC(=O)[C@@H](Cc2ccccc2)NC(=O)[C@H](Cc2ccc(C(N)=O)cc2)NC1=O` [compound 50, Ac-Arg-cyclo(Asp- Phe(4-(C(═O)—NH2))-D- Phe-Arg-Trp-Lys)-NH2] was 30 nM.
Take `CC(=O)N[C@@H](CCCNC(=N)N)C(=O)N[C@H]1CC(=O)NCCCC[C@@H](C(N)=O)NC(=O)[C@H](Cc2c[nH]c3ccccc23)NC(=O)[C@H](CCCNC(=N)N)NC(=O)[C@@H](Cc2ccccc2)NC(=O)[C@H](CO)NC1=O` [compound 117, Ac-Arg-cyclo(Asp-Ser- D-Phe-Cit-Trp-Lys)-NH2]: the Ki came to 1450 nM.
Turning to `CC(=O)N[C@@H](CCCNC(N)=O)C(=O)N[C@H]1CC(=O)NCCCC[C@@H](C(N)=O)NC(=O)[C@H](Cc2c[nH]c3ccccc23)NC(=O)[C@H](CCCNC(=N)N)NC(=O)[C@@H](Cc2ccccc2)NC(=O)[C@H](CCN)NC1=O` [compound 141, Ac-Cit-cyclo(Asp-Dab- D-Phe-Arg-Trp-Lys)- NH2], the Ki stood at 9 nM.
Then `CC(=O)N[C@@H](CCCNC(=N)N)C(=O)N[C@H]1CCCCNC(=O)C[C@@H](C(=O)O)NC(=O)[C@H](Cc2c[nH]c3ccccc23)NC(=O)[C@H](CCCNC(=N)N)NC(=O)[C@@H](Cc2ccccc2)NC(=O)[C@H](CCN)NC1=O` [compound 131, Ac-Arg-cyclo(Lys-Dab- D-Phe-Arg-Trp-Asp)- OH] (HELM PEPTIDE1{[ac].R.K.[Dab].[dF].R.W.D}$PEPTIDE1,PEPTIDE1,3:R3-8:R3$$$V2.0), with 35 nM; and `CC(=O)N[C@@H](CCCNC(=N)N)C(=O)N[C@H]1CCCC(=O)NCC[C@@H](C(=O)O)NC(=O)[C@H](Cc2c[nH]c3ccccc23)NC(=O)[C@H](CCCNC(=N)N)NC(=O)[C@@H](Cc2ccccc2)NC(=O)[C@H](CCN)NC1=O` [compound 144, Ac-Arg-cyclo(hGlu-Dab- D-Phe-Arg-Trp-Dab)- OH], with 45 nM; and `CC(=O)N[C@@H](CCCNC(=N)N)C(=O)N[C@H]1CC(=O)NCCCC[C@@H](C(=O)O)NC(=O)[C@H](Cc2c[nH]c3ccccc23)NC(=O)[C@H](CCCNC(=N)N)NC(=O)[C@@H](Cc2ccccc2)NC(=O)[C@@H]2C[C@@H](Cc3ccccc3)CN2C1=O` [compound 55, Ac-Arg-cyclo(Asp- Pro(Bn)-D-Phe-Arg- Trp-Lys)-OH], with 12 nM.
On to `CC(=O)N[C@@H](CCCNC(=N)N)C(=O)N[C@H]1CCC(=O)NCCC[C@@H](C(=O)O)NC(=O)[C@H](Cc2c[nH]c3ccccc23)NC(=O)[C@H](CCCNC(=N)N)NC(=O)[C@@H](Cc2ccccc2)NC(=O)[C@H](Cc2c[nH]cn2)NC1=O` [compound 82, Ac-Arg-cyclo(Glu-His- D-Phe-Arg-Trp-Orn)- OH] (HELM PEPTIDE1{[ac].R.E.H.[dF].R.W.[Orn]}$PEPTIDE1,PEPTIDE1,3:R3-8:R3$$$V2.0), for which the Ki turned out to be 4 nM.
The value for `CC(=O)N[C@@H](CCCNC(=N)N)C(=O)N[C@H]1CC(=O)NCCCC[C@@H](C(=O)NC2CC2)NC(=O)[C@H](Cc2c[nH]c3ccccc23)NC(=O)[C@H](CCCNC(=N)N)NC(=O)[C@@H](Cc2ccccc2)NC(=O)[C@H](CCN)NC1=O` [compound 122, Ac-Arg-cyclo(Asp-Dab- D-Phe-Arg-Trp-Lys)- NH-cyclopropyl] was 3 nM; that for `N=C(N)NCCC[C@H](NC(=O)CC1CCCCC1)C(=O)N[C@H]1CC(=O)NCCCC[C@@H](C(N)=O)NC(=O)[C@H](Cc2c[nH]c3ccccc23)NC(=O)[C@H](CCCNC(=N)N)NC(=O)[C@@H](Cc2ccccc2)NC(=O)[C@H](CCN)NC1=O` [compound 139, Cyclohexylacetyl-Arg- cyclo(Asp-Dab-D-Phe- Arg-Trp-Lys)-NH2] was 1 nM.
Then `N=C(N)NCCC[C@@H]1NC(=O)[C@@H](Cc2ccccc2)NC(=O)[C@H](Cc2c[nH]cn2)NC(=O)[C@@H](NC(=O)[C@@H](N)CCCNC(=N)N)CCCNC(=O)CC[C@@H](C(N)=O)NC(=O)[C@H](Cc2c[nH]c3ccccc23)NC1=O` [compound 99, Arg-cyclo(Orn-His-D- Phe-Arg-Trp-Glu)-NH2] (HELM PEPTIDE1{R.[Orn].H.[dF].R.W.E.[am]}$PEPTIDE1,PEPTIDE1,2:R3-7:R3$$$V2.0), with 6 nM; and `CCCCC(=O)N[C@H]1CCC(=O)NCC[C@@H](C(=O)N[C@@H](Cc2c[nH]c3ccccc23)C(N)=O)NC(=O)[C@H](CCCNC(=N)N)NC(=O)[C@@H](Cc2ccccc2)NC(=O)[C@H](Cc2c[nH]cn2)NC1=O` [compound 153, n-C4H9—CO-cyclo(Glu- His-D-Phe-Arg-Dab)- Trp-NH2], with 365 nM; and `CC(=O)N[C@@H](CCCNC(=N)N)C(=O)N[C@H]1CC(=O)NCCCC[C@@H](C(N)=O)NC(=O)[C@H](Cc2c[nH]c3ccccc23)NC(=O)[C@H](CCCNC(=N)N)NC(=O)[C@@H](Cc2ccccc2)NC(=O)[C@H]([C@@H](C)OCc2ccccc2)NC1=O` [compound 14, Ac-Arg-cyclo(Asp- Thr(Bzl)-D-Phe-Arg- Trp-Lys)-NH2] (Ac-RDT(Bn)[dF]RWK-NH2; lactam 2-7), with 1 nM.
